“Also recorded” adds a separate entry of the source. Blank lines part the entries; values can stand above or below the compound they belong to.
Experiments:
TPH1 = target: T1, TPH1 (Homo sapiens, UniProt P17752); assay: Steady-state kinetic study of TPH1 inhibition; type: biochemical
T1 construct: doubly truncated human TPH1 (ΔNH102-ΔCOOH402); made in house; host or cells: E. coli BL21(DE3)
Description: Steady-state kinetic studies were performed to explore the mode of inhibition. […] TPH1 and TH activity assays were performed as indicated above in the absence and presence of three different compound concentrations (TPH1: 0–100 μM; TH: 0–25 μM). Product formation was measured either at a fixed concentration of the cofactor BH4 (200 μM) and varying concentrations of L-Trp (0.937–60 μM) or L-Tyr (3.125–50 μM), respectively, or in the presence of varying concentrations of BH4 (TPH1:12.5–400 μM; TH: 7.4–200 μM) and a fixed concentration of amino acid substrates: 30 μM of L-Trp or 50 μM of L-Tyr, respectively. Kinetic parameters were obtained from the Michaelis–Menten model using nonlinear regression fit [drawing 3] where Vmax is the maximum enzyme velocity and Km the Michaelis–Menten constant.
Lineweaver–Burk plots were obtained by plotting the reciprocal of the rate of the enzyme reaction (1/V) versus the reciprocal substrate concentration (1/[S]) in the absence and presence of compounds.

TH [1] = settings: proteome profiling study; cited from earlier work
endogenous PAH = target: T2, endogenous PAH (Homo sapiens, UniProt P00439); assay: Cellular thermal shift assay (CETSA) in HepG2 cells; type: cell-based; settings: 50 μM compound, 1 h, vs DMSO
T2 construct: increased melting temperatures (ΔTm) of endogenous PAH; endogenous in cells; host or cells: HepG2
T2 sequence (P00439 1-452): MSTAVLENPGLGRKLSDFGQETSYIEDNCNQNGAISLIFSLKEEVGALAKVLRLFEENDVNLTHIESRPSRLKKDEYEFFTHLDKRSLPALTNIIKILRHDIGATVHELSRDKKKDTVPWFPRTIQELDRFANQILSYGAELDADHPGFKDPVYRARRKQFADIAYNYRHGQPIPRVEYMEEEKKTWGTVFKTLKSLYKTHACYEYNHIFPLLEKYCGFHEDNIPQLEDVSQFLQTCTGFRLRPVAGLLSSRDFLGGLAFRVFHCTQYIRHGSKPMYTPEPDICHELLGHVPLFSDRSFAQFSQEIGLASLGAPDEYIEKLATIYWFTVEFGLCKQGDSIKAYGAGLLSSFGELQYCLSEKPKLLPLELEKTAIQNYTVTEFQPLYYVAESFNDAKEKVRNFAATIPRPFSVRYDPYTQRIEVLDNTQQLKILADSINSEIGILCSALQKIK
Description: Then, cells were washed, harvested using trypsin, and pelleted by centrifugation. The pellet was washed twice with PBS supplemented with complete EDTA-free protease inhibitor cocktail (Roche) and divided into 14 aliquots of 35 μL containing 800,000 cells. Cells were then frozen in liquid nitrogen and thawed at 25 °C three times, and each aliquot was heated to a defined temperature by applying a gradient between 39 °C and 69 °C in a thermocycler (peQSTAR, PeQlab; 16-well gradient, 54 °C ± 15 °C). After 3 min incubation, aliquots were snap frozen in liquid nitrogen and thawed at 25 °C. Cell lysates were centrifuged at 20,000 g (4 °C) for 20 min. Supernatants were mixed with 5x loading buffer, heated to 70 °C for 5 min and analyzed by Western blotting. Chemoluminescence signals were recorded with a FusionSL, Vilber Lourmat (peQlab) and quantified using FusionCapt Advance FX7 16.01c software. Calculation of ΔTm was conducted using the Boltzmann sigmoidal model in GraphPad prism 7.01.
Cell lysates used for Western blot analysis were prepared as described in the Methods section (Cellular Thermal Shift Assay). […] Chemoluminescence signals were recorded with an FusionSL, Vilber Lourmat (peQlab) and quantified using FusionCapt Advance FX7 16.01c software.

PAH = settings: proteome profiling study; cited from earlier work
TH [2] = target: TH (Homo sapiens, UniProt P07101); assay: Steady-state kinetic study of TH inhibition; type: biochemical; settings: for TH Vmax (µmol/(min*mg)): BH4 7.4 – 200 µM / L-Tyr 50 µM
Chain of TH (Homo sapiens, UniProt P07101) (P07101 1-497 isoform P07101-3): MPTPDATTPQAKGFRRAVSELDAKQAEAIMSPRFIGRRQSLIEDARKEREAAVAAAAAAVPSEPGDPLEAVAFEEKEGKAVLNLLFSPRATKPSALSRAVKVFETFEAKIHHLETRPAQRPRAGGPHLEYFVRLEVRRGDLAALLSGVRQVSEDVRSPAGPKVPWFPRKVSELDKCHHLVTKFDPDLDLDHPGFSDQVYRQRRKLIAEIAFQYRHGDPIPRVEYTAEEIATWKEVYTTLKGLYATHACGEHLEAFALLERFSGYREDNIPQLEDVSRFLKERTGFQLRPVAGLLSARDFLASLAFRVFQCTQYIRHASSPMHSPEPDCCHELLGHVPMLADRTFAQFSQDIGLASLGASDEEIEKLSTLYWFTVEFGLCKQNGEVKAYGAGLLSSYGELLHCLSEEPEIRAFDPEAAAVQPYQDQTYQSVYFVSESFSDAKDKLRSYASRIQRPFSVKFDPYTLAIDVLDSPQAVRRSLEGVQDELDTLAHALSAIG
Description: Steady-state kinetic studies were performed to explore the mode of inhibition. […] TH: 0-25 μM). […] Kinetic parameters were obtained from the Michaelis-Menten model using nonlinear regression fit [drawing 3] where Vmax is the maximum enzyme velocity and Km the Michaelis-Menten constant. Lineweaver-Burk plots were obtained by plotting the reciprocal of the rate of the enzyme reaction (1/V) versus the reciprocal substrate concentration (1/[S]) in the absence and presence of compounds.

[3] = EG22 5 μM, BH4 12.5–400 μM/L-Trp 30 μM
[4] = EG22 5 μM, L-Trp 0.937–60 μM/BH4 200 μM
[5] = EG22 30 μM, BH4 12.5–400 μM/L-Trp 30 μM
[6] = EG22 30 μM, L-Trp 0.937–60 μM/BH4 200 μM
[7] = EG22 100 μM, BH4 12.5–400 μM/L-Trp 30 μM
[8] = EG22 100 μM, L-Trp 0.937–60 μM/BH4 200 μM

T1 sequence (P17752 102-402): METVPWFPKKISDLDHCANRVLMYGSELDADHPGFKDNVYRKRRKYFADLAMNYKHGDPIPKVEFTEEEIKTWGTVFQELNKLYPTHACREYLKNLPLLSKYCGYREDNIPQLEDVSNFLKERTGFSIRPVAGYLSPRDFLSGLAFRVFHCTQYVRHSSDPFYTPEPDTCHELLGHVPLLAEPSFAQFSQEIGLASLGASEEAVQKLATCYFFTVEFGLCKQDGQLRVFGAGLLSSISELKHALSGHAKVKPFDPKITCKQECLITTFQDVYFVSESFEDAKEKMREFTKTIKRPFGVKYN

Compound: O=C(NO)c1ccc(Cl)c(C(=O)Nc2ccc(Cl)cc2)c1 [EG22, 4-Chloro-3-(4-chlorophenylcarbamoyl)-N-hydroxybenzamide]
mode of TPH1 inhibition, varying BH4 and fixed L-Trp (TPH1; EG22 0–100 μM): competitive inhibition; also recorded: mainly competitive
mode of TPH1 inhibition, varying L-Trp and fixed BH4 (TPH1; EG22 0–100 μM): apparent mixed/uncompetitive inhibition; also recorded: mixed noncompetitive/uncompetitive
Km (TPH1; [3]): 22.3 ± 6.8 µM
TPH1 Vmax (μmol/(min·mg)) (TPH1; [3]): 3.4 ± 0.2 µmol/min/mg
Km (TPH1; [4]): 11.7 ± 1.1 µM
TPH1 Vmax (μmol/(min·mg)) (TPH1; [4]): 4.4 ± 0.2 µmol/min/mg
Km (TPH1; [5]): 53.8 ± 11.2 µM
TPH1 Vmax (μmol/(min·mg)) (TPH1; [5]): 3.0 ± 0.2 µmol/min/mg
Km (TPH1; [6]): 7.5 ± 1.3 µM
TPH1 Vmax (μmol/(min·mg)) (TPH1; [6]): 3.0 ± 0.2 µmol/min/mg
Km (TPH1; [7]): 76.9 ± 12.5 µM
TPH1 Vmax (μmol/(min·mg)) (TPH1; [7]): 2.8 ± 0.2 µmol/min/mg
Km (TPH1; [8]): 5.5 ± 0.8 µM
TPH1 Vmax (μmol/(min·mg)) (TPH1; [8]): 2.4 ± 0.1 µmol/min/mg

ΔTm at 50 µM (endogenous PAH): 3.7 °C
mode of TH inhibition versus the amino acid substrate (TH [2]; panobinostat): mixed noncompetitive/uncompetitive
TH Vmax (µmol/(min*mg)) (TH [2]; panobinostat 2.5 µM): 1.0 ± 0.1 µmol/min/mg
TH Vmax (µmol/(min*mg)) (TH [2]; panobinostat 10 µM): 0.32 ± 0.033 µmol/min/mg
TH Vmax (µmol/(min*mg)) (TH [2]; panobinostat 25 µM): 0.23 ± 0.029 µmol/min/mg
Compound: Cc1[nH]c2ccccc2c1CCNCc1ccc(/C=C/C(=O)NO)cc1 [panobinostat, reference compound]
IC50 (TH [1]): 3300 nM
IC50 (PAH): 200 nM
mode of TH inhibition toward BH4 (TH [2]; panobinostat 0–25 μM): mixed competitive/noncompetitive inhibition; also recorded: mainly competitive

— PMC11587510, “Aromatic Amino Acid Hydroxylases as Off-Targets of Histone Deacetylase Inhibitors” (ACS Chemical Neuroscience, 2024)
